Patent US7427686B2, “(3R, 4R)-trans-3, 4-diarylchroman derivatives and a method for the prevention and/or treatment of estrogen dependent diseases” (Counsel of Scientific and Industrial Research, priority 2003, dated 2008)
Like-named read-outs stand apart in the source and are kept apart here.

Key:
[1] = test system: PTH-induced resorption of 45Ca from chick fetal bones in culture; experiment: Antiosteoporosis (antiresorptive) activity in vitro, chick fetal bone assay; assay type: cell-based; conditions: for T/C ratio: 100 μM, inhibition in PTH-induced resorption of 45Ca
Procedure: Test solutions of the compounds of the present invention are prepared in appropriate solvents in concentration range of 5 millimolar to 400 millimolar, most preferably in concentrations of 20 millimolar. 5 μl of each concentration are used for evaluation of antiresorptive activity in vitro. In control experiments, 5 μl of appropriate solvent is used in lieu of test compound. Femur bones are isolated from chick embryos on day 11 post-ovulation. The adhering soft connective tissue is completely removed. Each femur bone is then placed in a drop of phosphate buffered saline (PBS) and is transferred to BGJb culture medium containing ^45CaCl2 and incubated for 2 h. Labeled femur bones are washed 2-3 times with PBS and transferred to BGJb medium containing parathyroid hormone and cultured for 96 h in the presence or absence of the compound of invention or the vehicle in BGJb medium. Contralateral femur of each fetus serves as corresponding control. Culture medium with the respective treatment in each well is changed after 48 h. On termination of the culture at 96 h, bones are transferred to 0.1 N HCl for 24 h. Radioactivity due to ^45Ca in the spent medium collected at 48 and 96 h of culture and HCl extract at 96 h of culture is quantified by Liquid Scintillation Spectrophotometer in 10 ml of the scintillation fluid. Bone resorbing activity is expressed as percentage of ^45Ca released into the culture medium and the effect of the compound of invention as percent of the corresponding contra-lateral control or T/C ratio as shown below: [formula] Appropriate solvents are selected from solvents like water, normal (physiological) saline, phosphate buffered saline, phosphate buffer, DMSO alone or in a suitable combinations thereof.

[2] = target: T1, estrogen receptors (Rattus norvegicus, UniProt P06211); experiment: Relative binding affinity (RBA) to estrogen receptors, 3H-estradiol competition assay; conditions: rat uterine cytosol, 3H-E2, 18 hrs at 4° C.; relative to 17-beta-estradiol = 100
T1 construct: Aliquot of uterine cytosol (200 μl; 2 uteri per ml) prepared in TEA buffer; from tissue; host or cells: uterine cytosol of immature estradiol-primed 20-21 day old rats
T1 sequence (P06211 1-600): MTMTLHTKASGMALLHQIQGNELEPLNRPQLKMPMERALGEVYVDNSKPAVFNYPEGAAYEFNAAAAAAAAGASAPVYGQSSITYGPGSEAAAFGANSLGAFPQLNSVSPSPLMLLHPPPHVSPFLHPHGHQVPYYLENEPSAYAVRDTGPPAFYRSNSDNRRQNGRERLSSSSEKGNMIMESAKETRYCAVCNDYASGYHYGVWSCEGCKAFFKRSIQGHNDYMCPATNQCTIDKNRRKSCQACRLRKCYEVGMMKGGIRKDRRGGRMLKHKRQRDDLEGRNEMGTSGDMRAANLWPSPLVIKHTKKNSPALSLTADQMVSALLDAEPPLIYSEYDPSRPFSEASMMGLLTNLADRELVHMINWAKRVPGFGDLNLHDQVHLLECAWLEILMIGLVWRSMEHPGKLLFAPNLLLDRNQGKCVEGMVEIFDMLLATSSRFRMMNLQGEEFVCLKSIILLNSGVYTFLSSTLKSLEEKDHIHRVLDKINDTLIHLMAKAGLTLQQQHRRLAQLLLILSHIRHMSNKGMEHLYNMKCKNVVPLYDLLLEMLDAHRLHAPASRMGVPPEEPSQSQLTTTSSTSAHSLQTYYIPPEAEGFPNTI

[3] = test system: immature ovariectomized rats; experiment: Estrogen agonistic activity (uterine weight and uterine morphometry); assay type: in vivo, rat; conditions: for Percent increase in uterine weight (percent of OVX + vehicle treatment group): 3 days
Procedure: Twenty-one-day-old immature female rats are bilaterally ovariectomized under light ether anaesthesia and, after post-operative rest for 7 days, are randomized into different treatment groups. Each rat receives the compound of the invention once daily for 3 consecutive days on days 28-30 of age. A separate group of animals receiving only the vehicle for similar duration serves as control. At autopsy 24 h after the last treatment on day 31 of age, vaginal smear of each rat is taken and uterus is carefully excised, gently blotted, weighed and fixed for histology and histomorphometry using image analysis. Premature opening of vagina, cornification of vaginal epithelium, increase in uterine fresh weight, total uterine and endometrial area and uterine luminal epithelial cell height are taken as parameters for evaluation of estrogen agonistic activity in comparison to rats of vehicle control group.
For image analysis in estrogen agonistic activity evaluation studies, paraffin sections (6 μm thick) of the uterus stained with haematoxylin and eosin were analysed microscopically. To determine changes in uterine tissue components, areas of whole uterus and endometrium and the thickness of uterine epithelium were measured using a computer-image analysis system (BioVis, Expert Vision, India). Briefly, microscopic images of uterus acquired through a CCD camera were loaded in to the image analysis program and spatially calibrated against a stage micrometer image taken at the same magnification. Using thresholding and line tools, the regions for measurements were selected and the area (mm^2) of whole uterine transection excluding the luminal space, the area (mm^2) of the endometrium only, and the thickness (μm) of luminal epithelial lining were measured. Luminal epithelial thickness data was the Average of measurements made at 6 randomly selected sites are taken as parameters for evaluation.

[4] = test system: immature ovariectomized rats; experiment: Estrogen antagonistic activity (EE induced uterine weight gain); assay type: in vivo, rat; conditions: 3 days
Procedure: Twenty-one-day-old immature female rats are bilaterally ovariectomized under light ether anaesthesia and after post-operative rest for 7 days, are randomized into different treatment groups. Each rat receives the compounds of the invention and 0.02 mg/kg dose of 17-alfa-ethynylestradiol in 10% ethanol-distilled water once daily for 3 consecutive days on days 28-30 of age. A separate group of animals-receiving only 17-alfa-ethynylestradiol (0.02 mg/kg) in 10% ethanol-distilled water for similar duration are used for comparison. At autopsy on day 31 of age, vaginal smear of each rat is taken and uterus is carefully excised, gently blotted, weighed and fixed for histology and histomorphometry using image analysis. Inhibition in 17-alfa-ethynylestradiol-induced premature opening of vagina, cornification of vaginal epithelium, increase in uterine fresh weight, total uterine and endometrial area and uterine luminal epithelial cell height are taken as parameters for evaluation of estrogen antagonistic activity.

[5] = test system: adult female rats; experiment: Post-coital antifertility activity; assay type: in vivo, rat; conditions: for % Efficacy: oral
Procedure: Adult female rats are caged overnight with coeval males of proven fertility and their vaginal smears are checked on the following morning. The day of presence of spermatozoa in the vaginal smear is taken as day 1 of pregnancy. […] Animals of all the groups are autopsied on day 10 post-coitum and number and status of corpora lutea and implantation sites in each rat are recorded. The compounds of the present invention are considered active if there is complete absence of implantations in the uterus of all rats, in comparison to presence of normal implantations in the uterus of rats of vehicle control group.

[6] = test system: MCF-7 cells; experiment: cells; assay type: cell-based, human
Procedure: The procedure is based on the following methods: New colorimetric assay for anticancer drug screening, Skehan et al., J Natn Cancer Inst, 82,1107, 1990 and Feasibility of a high-flux anticancer drug screen using a diverse panel of cultured human tumor cell lines 83,757, 1991.
A fully confluent flask of MCF-7 cells in trypsinized and 10^4 cells/well are plated in a 96 welled flat bottomed plate in 200 μl Minimum Essential Medium (MEM), pH 7.4 and allowed to attach for 24 h at 37° C. in a humidified CO2 incubator. Subsequently, the compound of invention dissolved in DMSO or ethanol is added at a specified concentration and further incubated for 48 h as before. The cells are then fixed in 50 μl cold 50% TCA and incubated for 1 h at 4° C. The supernatant is discarded and the plate is washed five times with deionized water and air dried. 100 μl of 0.4% (w/v) Sulforhodamine B (SRB) in 1% acetic acid is added to each well and incubated at room temperature for 30 minutes. Unbound SRB is removed by five washes with chilled 1% acetic acid and the plate is air dried. 200 μl of unbuffered 10 mM Tris base is added to solublize the bound stain for 5 minutes at room temperature and O.D. is read at 560 nm in a plate reader. The graph is plotted between O.D. and concentration and LC50 is calculated with respect to tamoxifen, which is used as a positive control.

[7] = 0.05 mg/kg daily with 0.02 mg/kg 17-alfa-ethynylestradiol
[8] = 0.025 mg/kg daily, days 1-5 post-coitum
[9] = 0.05 mg/kg daily, days 1-5 post-coitum
[10] = 0.1 mg/kg daily, days 1-7 post-coitum
[11] = 0.1 mg/kg daily, days 1-5 post-coitum
[12] = cultured MCF-7 cells, 48 h, read-out: LC50 (the source's name)

Structure (SMILES)	T/C ratio [1]	Endometrium Epithelial cell height ([3]; 0.05 mg/kg daily)	Endometrium Total area ([3]; 0.05 mg/kg daily)	Uterus Total area ([3]; 0.05 mg/kg daily)	Percent increase in uterine weight (percent of OVX + vehicle treatment group) ([3]; 0.05 mg/kg daily)	Percent inhibition in EE induced uterine weight gain [4, 7]	% Efficacy [5, 9]	% Efficacy ([5]; 0.5 mg/kg, day 1 post-coitum)	% Efficacy ([5]; 1 mg/kg, day 1 post-coitum)	further results
COc1ccc2c(c1)OC(C)(C)[C@@H](c1ccccc1)[C@@H]2c1ccc(OC[C@H]2CO2)cc1 (relative stereo) [Example number 1]	0.59									
CCCCNC[C@@H](O)COc1ccc([C@@H]2c3ccc(OC)cc3OC(C)(C)[C@H]2c2ccccc2)cc1 (relative stereo) [Example number 2, 3R,4R-trans-2,2-dimethyl-3-phenyl-4-(4-[{2R)-(3-n-butylamino-2-hydroxy}propyloxy]-phenyl)-7-methoxychroman]		8.69 μm	0.08 mm^2	0.175 mm^2	38%	09%	100%	100%	100%	RBA [2]: 5.45; estrogenic activity at the MED ([3]; at the MED (0.05 mg/kg)): devoid of any estrogenic activity; % Efficacy [5, 8]: 67%; % Efficacy [5, 10]: 100%; MED (prevention of pregnancy) ([5]; rats, administered during the pre-implantation period): 0.05 mg/kg
CCCCNC[C@H](O)COc1ccc([C@@H]2c3ccc(OC)cc3OC(C)(C)[C@H]2c2ccccc2)cc1 (relative stereo) [Example number 7]	0.41	6.17 μm	0.13 mm^2	0.35 mm^2	11%	31%	100%	50%	100%	% Efficacy [5, 8]: Inactive; % Efficacy [5, 11]: 100%
COc1ccc2c(c1)OC(C)(C)[C@@H](c1ccccc1)[C@@H]2c1ccc(OC[C@@H](O)CN2CCCC2)cc1 (relative stereo) [Example number 8]		17.25 μm	0.35 mm^2	0.67 mm^2	53%	49%	100%	100%	100%	RBA [2]: 6.6; % Efficacy [5, 11]: 100%
COc1ccc2c(c1)OC(C)(C)[C@@H](c1ccccc1)[C@@H]2c1ccc(OCC2CO2)cc1 (relative stereo) [Example number 10, 3R,4R-Trans-2,2-dimethyl-3-phenyl-4-(4-(2,3-epoxypropyloxy)-phenyl)-7-methoxychroman]	0.79									
COc1ccc2c(c1)OC(C)(C)[C@@H](c1ccccc1)[C@@H]2c1ccc(OCC(O)CN2CCCC2)cc1 (relative stereo) [Example number 12, 3R,4R-Trans-2,2-dimethyl-3-phenyl-4-(4-(2-hydroxy-3-pyrrolidinopropyloxy)-phenyl)-7-methoxy chroman]	0.77						50%			Endometrium Epithelial cell height ([3]; 0.1 mg/kg daily): 15.93 μm; Endometrium Total area ([3]; 0.1 mg/kg daily): 0.27 mm^2; Uterus Total area ([3]; 0.1 mg/kg daily): 0.56 mm^2; Percent increase in uterine weight (percent of OVX + vehicle treatment group) ([3]; 0.10 mg/kg daily): 120%; Percent inhibition in EE induced uterine weight gain ([4]; 0.1 mg/kg daily with 0.02 mg/kg 17-alfa-ethynylestradiol): 38%; CC50 [6, 12]: 18.2 µM; % Efficacy [5, 10]: 100%
COc1ccc2c(c1)OC(C)(C)[C@@H](c1ccccc1)[C@@H]2c1ccc(OCC(O)CN2CCCCC2)cc1 (relative stereo) [Example number 13, 3R,4R-Trans-2,2-dimethyl-3-phenyl-4-(4-(2-hydroxy-3-piperidinopropyloxy)-phenyl)-7-methoxychroman]										CC50 [6, 12]: 17.8 µM
C#C[C@]1(O)CC[C@H]2[C@@H]3CCc4cc(O)ccc4[C@H]3CC[C@@]21C [17-alfa-Ethynylestradiol, reference compound]										Endometrium Epithelial cell height ([3]; 0.01 mg/kg daily): 33.65 μm; Endometrium Total area ([3]; 0.01 mg/kg daily): 0.57 mm^2; Uterus Total area ([3]; 0.01 mg/kg daily): 1.21 mm^2; Percent increase in uterine weight (percent of OVX + vehicle treatment group) ([3]; 0.01 mg/kg daily): 419%
O=C(c1ccc(OCCN2CCCCC2)cc1)c1c(-c2ccc(O)cc2)sc2cc(O)ccc12 [Raloxifene, reference compound]										T/C ([1]; comparator, concentration not given): 0.6
CC/C(=C(\c1ccccc1)c1ccc(OCCN(C)C)cc1)c1ccccc1 [Tamoxifen, reference compound]										CC50 ([6]; Homo sapiens, MCF7, 48 h, read-out: LC50): 14.2 µM
